Measured values: patent US12201633B2, “Compounds and methods for treatment of visceral pain” (Arena Pharmaceuticals, Inc., priority 2017, dated 2025)

Tests used:
human CB2 receptor [1] = target: T1, human CB2 receptor (Homo sapiens, UniProt P34972); test: PathHunter β-arrestin assay, CB2
human CB2 receptor [2] = target: T1, human CB2 receptor; test: HTRF assay for direct cAMP measurement, CB2; assay type: cell-based; set-up: 93-0164 (CHO-K1 EA-Arrestin parental line); host or cells: CHO-K1 EA-Arrestin, clone #61
hCB1 = hCB1 (Homo sapiens, UniProt P21554); test: PathHunter β-arrestin assay, CB1
Sequence of hCB1 (P21554 whole entry): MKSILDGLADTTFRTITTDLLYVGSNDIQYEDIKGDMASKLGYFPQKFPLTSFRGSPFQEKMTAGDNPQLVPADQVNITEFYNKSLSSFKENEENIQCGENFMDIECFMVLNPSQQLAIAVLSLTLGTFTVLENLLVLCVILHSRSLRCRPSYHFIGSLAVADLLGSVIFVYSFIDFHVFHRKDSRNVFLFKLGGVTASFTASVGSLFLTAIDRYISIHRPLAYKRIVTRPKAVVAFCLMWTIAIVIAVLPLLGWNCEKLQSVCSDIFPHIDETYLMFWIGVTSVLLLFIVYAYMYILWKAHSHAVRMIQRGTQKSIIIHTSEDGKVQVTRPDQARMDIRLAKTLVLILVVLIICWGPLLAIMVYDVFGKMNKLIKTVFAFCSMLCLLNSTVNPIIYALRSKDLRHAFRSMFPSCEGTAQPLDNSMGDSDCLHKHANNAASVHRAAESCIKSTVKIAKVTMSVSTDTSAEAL

T1 sequence (P34972 whole entry): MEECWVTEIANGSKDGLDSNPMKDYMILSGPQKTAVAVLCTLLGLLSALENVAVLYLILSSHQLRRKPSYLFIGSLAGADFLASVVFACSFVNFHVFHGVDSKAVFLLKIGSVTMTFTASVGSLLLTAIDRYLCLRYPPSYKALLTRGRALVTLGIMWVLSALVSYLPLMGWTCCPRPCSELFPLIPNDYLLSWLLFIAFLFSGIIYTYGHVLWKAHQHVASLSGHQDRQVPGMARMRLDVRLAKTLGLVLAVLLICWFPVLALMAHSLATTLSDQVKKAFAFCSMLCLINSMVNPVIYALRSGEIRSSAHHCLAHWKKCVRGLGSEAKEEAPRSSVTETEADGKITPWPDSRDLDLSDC

Structure (SMILES) | EC50 (human CB2 receptor [1]) [nM] | EC50 (human CB2 receptor [2]) [nM] | EC50 (hCB1) [nM]
CC(C)(C)[C@@H](CO)NC(=O)c1nn(-c2cnccn2)c2c1C[C@@H]1C[C@H]21 [Compound 696, (1aS,5aS)-2-Pyrazin-2-yl-1a,2,5,5a-tetrahydro-1H-2,3-diaza-cyclopropa[a]pentalene-4-carboxylic acid ((S)-1-hydroxymethyl-2,2-dimethyl-propyl)-amide] | 49.4 | 6.89 | 
O=C(NC1(CO)CCC1)c1nn(-c2c[n+]([O-])ccn2)c2c1C[C@H]1C[C@@H]21 [Compound 698, (1aR,5aR)-2-(4-Oxy-pyrazin-2-yl)-1a,2,5,5a-tetrahydro-1H-2,3-diaza-cyclopropa[a]pentalene-4-carboxylic acid (1-hydroxymethyl-cyclobutyl)-amide] | 27.9 | 10.2 | 
O=C(NC1(c2ccccn2)CCC1)c1nn(-c2c[n+]([O-])ccn2)c2c1C[C@@H]1C[C@H]21 [Compound 700, (1aS,5aS)-2-(4-Oxy-pyrazin-2-yl)-1a,2,5,5a-tetrahydro-1H-2,3-diaza-cyclopropa[a]pentalene-4-carboxylic acid (1-pyridin-2-yl-cyclobutyl)-amide] | 31.5 | 3.14 | 
CCNC(=O)[C@@H](NC(=O)c1nn(-c2c[n+]([O-])ccn2)c2c1C[C@H]1C[C@@H]21)C(C)(C)C [Compound 728, (1aR,5aR)-2-(4-Oxy-pyrazin-2-yl)-1a,2,5,5a-tetrahydro-1H-2,3-diaza-cyclopropa[a]pentalene-4-carboxylic acid ((S)-1-ethylcarbamoyl-2,2-dimethyl-propyl)-amide] | 1.1 |  | 251
O=C(NC1(C(F)(F)F)CCC1)c1nn(-c2c[n+]([O-])ccn2)c2c1C[C@@H]1C[C@H]21 [Compound 765, (1aS,5aS)-2-(4-Oxy-pyrazin-2-yl)-1a,2,5,5a-tetrahydro-1H-2,3-diaza-cyclopropa[a]pentalene-4-carboxylic acid (1-trifluoromethyl-cyclobutyl)-amide] | 1.16 | 0.1 | 
CC(CO)(CO)NC(=O)c1nn(-c2cc(C#N)ccn2)c2c1C[C@H]1C[C@@H]21 [Compound 820, (1aR,5aR)-2-(4-Cyano-pyridin-2-yl)-1a,2,5,5a-tetrahydro-1H-2,3-diaza-cyclopropa[a]pentalene-4-carboxylic acid (2-hydroxy-1-hydroxymethyl-1-methyl-ethyl)-amide] | 38.4 | 2.62 | 
CC1(NC(=O)c2nn(-c3c[n+]([O-])ccn3)c3c2C[C@H]2C[C@@H]32)CCC1 [Compound 821, (1aR,5aR)-2-(4-Oxy-pyrazin-2-yl)-1a,2,5,5a-tetrahydro-1H-2,3-diaza-cyclopropa[a]pentalene-4-carboxylic acid (1-methyl-cyclobutyl)-amide] | 7.12 | 0.6 | 
O=C(N[C@H]1c2ccccc2C[C@H]1O)c1nn(-c2c[n+]([O-])ccn2)c2c1C[C@@H]1C[C@H]21 [Compound 921, (1aS,5aS)-2-(4-Oxy-pyrazin-2-yl)-1a,2,5,5a-tetrahydro-1H-2,3-diaza-cyclopropa[a]pentalene-4-carboxylic acid ((1S,2R)-2-hydroxy-indan-1-yl)-amide] | 2.59 | 0.2 | 
O=C(NC1(CF)CCC1)c1nn(-c2c[n+]([O-])ccn2)c2c1C[C@@H]1C[C@H]21 [Compound 924, (1aS,5aS)-2-(4-Oxy-pyrazin-2-yl)-1a,2,5,5a-tetrahydro-1H-2,3-diaza-cyclopropa[a]pentalene-4-carboxylic acid (1-fluoromethyl-cyclobutyl)-amide] | 10.5 | 0.8 | 
O=C(NC1(C(F)(F)F)CCC1)c1nn(-c2cnccn2)c2c1C[C@@H]1C[C@H]21 [Compound 926, (1aS,5aS)-2-Pyrazin-2-yl-1a,2,5,5a-tetrahydro-1H-2,3-diaza-cyclopropa[a]pentalene-4-carboxylic acid (1-trifluoromethyl-cyclobutyl)-amide] | 4.43 | 0.2 | 
